# According to patent US10300065B2, “Method of treating or prevention of atherothrombotic events in patients with history of myocardial infarction” (ASTRAZENECA AB, priority 2015, dated 2019):
# Tests used:
# [1] = tested on: patients with a history of myocardial infarction; assay: PEGASUS-TIMI 54 analysis by time from P2Y12 inhibitor withdrawal to randomization; details: for All-cause mortality, HR / Cor. heart dis. death, HR / Fatal bleeding, HR / Intracranial bleeding, HR / Myocardial infarction, HR / Stroke, HR / TIMI Major Bleeding, HR / TIMI Major or Minor Bleeding, HR / All-cause mortality, (%) / Cor. heart dis. death, (%) / Fatal bleeding, (%) / Intracranial bleeding, (%) / Myocardial infarction, (%) / Stroke, (%) / TIMI Major Bleeding, (%) / TIMI Major or Minor Bleeding, (%): at 3 years
# Text: Patients in PEGASUS-TIMI 54 were further categorized by time from last P2Y12 inhibitor (days: ≤30 days, 31-360, >360).
# platelets = details: for most patients; cited from earlier work
# [2] = 60 mg and 90 mg pooled, between 31 days and one year following withdrawal
# [3] = 60 mg and 90 mg pooled, within 30 days following withdrawal of dual antiplatelet therapy
# [4] = >1 year from P2Y12 inhibitor withdrawal, ticagrelor 60 mg bid vs. placebo
# [5] = >1 year from P2Y12 inhibitor withdrawal, ticagrelor 60 mg bid
# [6] = >1 year from P2Y12 inhibitor withdrawal, ticagrelor 90 mg bid vs. placebo
# [7] = >1 year from P2Y12 inhibitor withdrawal, ticagrelor 90 mg bid
# [8] = >1 year from P2Y12 inhibitor withdrawal, ticagrelor pooled vs. placebo
# [9] = >1 year from P2Y12 inhibitor withdrawal, ticagrelor pooled
# [10] = >30 days to ≤1 year from P2Y12 inhibitor withdrawal, ticagrelor 60 mg bid vs. placebo
# [11] = >30 days to ≤1 year from P2Y12 inhibitor withdrawal, ticagrelor 60 mg bid
# [12] = >30 days to ≤1 year from P2Y12 inhibitor withdrawal, ticagrelor 90 mg bid vs. placebo
# [13] = >30 days to ≤1 year from P2Y12 inhibitor withdrawal, ticagrelor 90 mg bid
# [14] = >30 days to ≤1 year from P2Y12 inhibitor withdrawal, ticagrelor pooled vs. placebo
# [15] = >30 days to ≤1 year from P2Y12 inhibitor withdrawal, ticagrelor pooled
# [16] = pooled doses, withdrawal within 30 days
# [17] = ≤30 days from P2Y12 inhibitor withdrawal, ticagrelor 60 mg bid vs. placebo
# [18] = ≤30 days from P2Y12 inhibitor withdrawal, ticagrelor 60 mg bid
# [19] = ≤30 days from P2Y12 inhibitor withdrawal, ticagrelor 90 mg bid vs. placebo
# [20] = ≤30 days from P2Y12 inhibitor withdrawal, ticagrelor 90 mg bid
# [21] = ≤30 days from P2Y12 inhibitor withdrawal, ticagrelor pooled vs. placebo
# [22] = ≤30 days from P2Y12 inhibitor withdrawal, ticagrelor pooled
compound,measurement,setting,value
"CCCSc1nc(N[C@@H]2C[C@H]2c2ccc(F)c(F)c2)c2nnn([C@@H]3C[C@H](OCCO)[C@@H](O)[C@H]3O)c2n1 [Ticagrelor, (1S,2S,3R,5S)-3-[7-{[(1R,2S)-2-(3,4-difluorophenyl)cyclopropyl]amino}-5-(propylthio)-3H-[1,2,3]-triazolo[4,5-d]pyrimidin-3-yl]-5-(2-hydroxyethoxy)cyclopentane-1,2-diol]",absolute reduction in the risk of a subsequent atherothrombotic event,[1]; [2],1.1%
same,reduction in the risk of developing a subsequent atherothrombotic event,[1]; [2],14%
same,absolute reduction in the risk of a subsequent atherothrombotic event,[1]; [3],2.2%
same,reduction in the risk of developing a subsequent atherothrombotic event,[1]; [3],27%
same,"All-cause mortality, HR",[1]; [4],1.34
same,"Cor. heart dis. death, HR",[1]; [4],0.96
same,"Fatal bleeding, HR",[1]; [4],1.11
same,"Intracranial bleeding, HR",[1]; [4],1.56
same,"Myocardial infarction, HR",[1]; [4],0.95
same,"Stroke, HR",[1]; [4],0.95
same,"TIMI Major Bleeding, HR",[1]; [4],2.1
same,"TIMI Major or Minor Bleeding, HR",[1]; [4],2.11
same,"All-cause mortality, (%)",[1]; [5],(4.6) %
same,"Cor. heart dis. death, (%)",[1]; [5],(1.2) %
same,"Fatal bleeding, (%)",[1]; [5],(0.1) %
same,"Intracranial bleeding, (%)",[1]; [5],(0.6) %
same,"Myocardial infarction, (%)",[1]; [5],(4.1) %
same,"Stroke, (%)",[1]; [5],(1.2) %
same,"TIMI Major Bleeding, (%)",[1]; [5],(1.9) %
same,"TIMI Major or Minor Bleeding, (%)",[1]; [5],(2.3) %
same,"All-cause mortality, HR",[1]; [6],1.31
same,"Cor. heart dis. death, HR",[1]; [6],0.77
same,"Intracranial bleeding, HR",[1]; [6],1.42
same,"Myocardial infarction, HR",[1]; [6],0.84
same,"Stroke, HR",[1]; [6],1.13
same,"TIMI Major Bleeding, HR",[1]; [6],3.28
same,"TIMI Major or Minor Bleeding, HR",[1]; [6],3.82
same,"All-cause mortality, (%)",[1]; [7],(4.7) %
same,"Cor. heart dis. death, (%)",[1]; [7],(1.1) %
same,"Fatal bleeding, (%)",[1]; [7],(0) %
same,"Intracranial bleeding, (%)",[1]; [7],(0.5) %
same,"Myocardial infarction, (%)",[1]; [7],(3.6) %
same,"Stroke, (%)",[1]; [7],(1.5) %
same,"TIMI Major Bleeding, (%)",[1]; [7],(3) %
same,"TIMI Major or Minor Bleeding, (%)",[1]; [7],(4.4) %
same,"All-cause mortality, HR",[1]; [8],1.32
same,"Cor. heart dis. death, HR",[1]; [8],0.86
same,"Fatal bleeding, HR",[1]; [8],0.57
same,"Intracranial bleeding, HR",[1]; [8],1.48
same,"Myocardial infarction, HR",[1]; [8],0.9
same,"Stroke, HR",[1]; [8],1.04
same,"TIMI Major Bleeding, HR",[1]; [8],2.67
same,"TIMI Major or Minor Bleeding, HR",[1]; [8],2.94
same,"All-cause mortality, (%)",[1]; [9],(4.6) %
same,"Cor. heart dis. death, (%)",[1]; [9],(1.2) %
same,"Fatal bleeding, (%)",[1]; [9],(0) %
same,"Intracranial bleeding, (%)",[1]; [9],(0.6) %
same,"Myocardial infarction, (%)",[1]; [9],(3.9) %
same,"Stroke, (%)",[1]; [9],(1.3) %
same,"TIMI Major Bleeding, (%)",[1]; [9],(2.4) %
same,"TIMI Major or Minor Bleeding, (%)",[1]; [9],(3.5) %
same,"All-cause mortality, HR",[1]; [10],0.76
same,"Cor. heart dis. death, HR",[1]; [10],0.70
same,"Fatal bleeding, HR",[1]; [10],0.87
same,"Intracranial bleeding, HR",[1]; [10],1.97
same,"Myocardial infarction, HR",[1]; [10],0.88
same,"Stroke, HR",[1]; [10],0.82
same,"TIMI Major Bleeding, HR",[1]; [10],2.94
same,"TIMI Major or Minor Bleeding, HR",[1]; [10],3.07
same,"All-cause mortality, (%)",[1]; [11],(3.8) %
same,"Cor. heart dis. death, (%)",[1]; [11],(1.4) %
same,"Fatal bleeding, (%)",[1]; [11],(0.3) %
same,"Intracranial bleeding, (%)",[1]; [11],(0.6) %
same,"Myocardial infarction, (%)",[1]; [11],(4.6) %
same,"Stroke, (%)",[1]; [11],(1.4) %
same,"TIMI Major Bleeding, (%)",[1]; [11],(2.7) %
same,"TIMI Major or Minor Bleeding, (%)",[1]; [11],(3.8) %
same,"All-cause mortality, HR",[1]; [12],1.01
same,"Cor. heart dis. death, HR",[1]; [12],0.71
same,"Fatal bleeding, HR",[1]; [12],0.24
same,"Intracranial bleeding, HR",[1]; [12],1.63
same,"Myocardial infarction, HR",[1]; [12],0.82
same,"Stroke, HR",[1]; [12],1.02
same,"TIMI Major Bleeding, HR",[1]; [12],2.85
same,"TIMI Major or Minor Bleeding, HR",[1]; [12],3.17
same,"All-cause mortality, (%)",[1]; [13],(4.8) %
same,"Cor. heart dis. death, (%)",[1]; [13],(1.4) %
same,"Fatal bleeding, (%)",[1]; [13],(0.1) %
same,"Intracranial bleeding, (%)",[1]; [13],(0.5) %
same,"Myocardial infarction, (%)",[1]; [13],(4.2) %
same,"Stroke, (%)",[1]; [13],(1.9) %
same,"TIMI Major Bleeding, (%)",[1]; [13],(2.8) %
same,"TIMI Major or Minor Bleeding, (%)",[1]; [13],(3.9) %
same,"All-cause mortality, HR",[1]; [14],0.88
same,"Cor. heart dis. death, HR",[1]; [14],0.70
same,"Fatal bleeding, HR",[1]; [14],0.57
same,"Intracranial bleeding, HR",[1]; [14],1.81
same,"Myocardial infarction, HR",[1]; [14],0.85
same,"Stroke, HR",[1]; [14],0.91
same,"TIMI Major Bleeding, HR",[1]; [14],2.89
same,"TIMI Major or Minor Bleeding, HR",[1]; [14],3.11
same,"All-cause mortality, (%)",[1]; [15],(4.3) %
same,"Cor. heart dis. death, (%)",[1]; [15],(1.4) %
same,"Fatal bleeding, (%)",[1]; [15],(0.2) %
same,"Intracranial bleeding, (%)",[1]; [15],(0.5) %
same,"Myocardial infarction, (%)",[1]; [15],(4.4) %
same,"Stroke, (%)",[1]; [15],(1.7) %
same,"TIMI Major Bleeding, (%)",[1]; [15],(2.7) %
same,"TIMI Major or Minor Bleeding, (%)",[1]; [15],(3.8) %
same,"HR for cardiovascular death, myocardial infarction, or stroke vs. placebo","[1]; doses pooled, withdrawal ≤30 days, beyond 90 days",0.76
same,"HR for cardiovascular death, myocardial infarction, or stroke vs. placebo","[1]; doses pooled, withdrawal ≤30 days, first 90 days after randomization",0.54
same,reduction in the risk of developing a subsequent atherothrombotic event,[1]; more than one year after withdrawal of previous dual antiplatelet therapy,did not experience a reduction
same,"HR for cardiovascular death, myocardial infarction, or stroke vs. placebo","[1]; pooled doses, time from last P2Y12 inhibitor 31-360 days",0.86
same,"HR for cardiovascular death, myocardial infarction, or stroke vs. placebo","[1]; pooled doses, time from last P2Y12 inhibitor >360 days",1.01
same,"HR for cardiovascular death, myocardial infarction, or stroke vs. placebo","[1]; pooled doses, time from last P2Y12 inhibitor ≤30 days",0.73
same,HR for cardiovascular death vs. placebo,[1]; [16],0.78
same,HR for myocardial infarction vs. placebo,[1]; [16],0.72
same,HR for stroke vs. placebo,[1]; [16],0.64
same,"HR for cardiovascular death, myocardial infarction, or stroke vs. placebo","[1]; pooled doses, ≤30 days of stopping, qualifying MI <2 years prior to randomization",0.73
same,"HR for cardiovascular death, myocardial infarction, or stroke vs. placebo","[1]; pooled doses, ≤30 days of stopping, qualifying MI ≥2 years prior to randomization",0.71
same,"All-cause mortality, HR",[1]; [17],0.80
same,"Cor. heart dis. death, HR",[1]; [17],0.78
same,"Fatal bleeding, HR",[1]; [17],2.15
same,"Intracranial bleeding, HR",[1]; [17],1.53
same,"Myocardial infarction, HR",[1]; [17],0.78
same,"Stroke, HR",[1]; [17],0.64
same,"TIMI Major Bleeding, HR",[1]; [17],3.3
same,"TIMI Major or Minor Bleeding, HR",[1]; [17],3.43
same,"All-cause mortality, (%)",[1]; [18],(4.3) %
same,"Cor. heart dis. death, (%)",[1]; [18],(1.5) %
same,"Fatal bleeding, (%)",[1]; [18],(0.4) %
same,"Intracranial bleeding, (%)",[1]; [18],(0.8) %
same,"Myocardial infarction, (%)",[1]; [18],(5.2) %
same,"Stroke, (%)",[1]; [18],(1.5) %
same,"TIMI Major Bleeding, (%)",[1]; [18],(2.6) %
same,"TIMI Major or Minor Bleeding, (%)",[1]; [18],(4.1) %
same,"All-cause mortality, HR",[1]; [19],1.02
same,"Cor. heart dis. death, HR",[1]; [19],0.67
same,"Fatal bleeding, HR",[1]; [19],2.25
same,"Intracranial bleeding, HR",[1]; [19],2.07
same,"Myocardial infarction, HR",[1]; [19],0.67
same,"Stroke, HR",[1]; [19],0.64
same,"TIMI Major Bleeding, HR",[1]; [19],3.44
same,"TIMI Major or Minor Bleeding, HR",[1]; [19],3.57
same,"All-cause mortality, (%)",[1]; [20],(5.1) %
same,"Cor. heart dis. death, (%)",[1]; [20],(1.1) %
same,"Fatal bleeding, (%)",[1]; [20],(0.2) %
same,"Intracranial bleeding, (%)",[1]; [20],(0.7) %
same,"Myocardial infarction, (%)",[1]; [20],(4.6) %
same,"Stroke, (%)",[1]; [20],(1.3) %
same,"TIMI Major Bleeding, (%)",[1]; [20],(2.4) %
same,"TIMI Major or Minor Bleeding, (%)",[1]; [20],(3.8) %
same,"All-cause mortality, HR",[1]; [21],0.91
same,"Cor. heart dis. death, HR",[1]; [21],0.72
same,"Fatal bleeding, HR",[1]; [21],2.2
same,"Intracranial bleeding, HR",[1]; [21],1.79
same,"Myocardial infarction, HR",[1]; [21],0.72
same,"Stroke, HR",[1]; [21],0.64
same,"TIMI Major Bleeding, HR",[1]; [21],3.36
same,"TIMI Major or Minor Bleeding, HR",[1]; [21],3.50
same,"All-cause mortality, (%)",[1]; [22],(4.7) %
same,"Cor. heart dis. death, (%)",[1]; [22],(1.3) %
same,"Fatal bleeding, (%)",[1]; [22],(0.3) %
same,"Intracranial bleeding, (%)",[1]; [22],(0.7) %
same,"Myocardial infarction, (%)",[1]; [22],(4.9) %
same,"Stroke, (%)",[1]; [22],(1.4) %
same,"TIMI Major Bleeding, (%)",[1]; [22],(2.5) %
same,"TIMI Major or Minor Bleeding, (%)",[1]; [22],(4.0%
same,onset of antiplatelet effect,platelets,≤ 2 h
